Measurements reported in PMC6472966 (Analytical and bioanalytical chemistry, 2019).

Assays:
HeLa cells = format: cell-based; conditions: 10 μM peptide, 60 min at 37°C, hierarchical cluster analysis, Fig. 4a
[1] = bulk, off-chip studies; cited from earlier work
[2] = at high concentrations; cited from earlier work
[3] = cited from earlier work

## FAM-RRRRRRRRR [ARG]
HeLa cells
  normalized fluorescence of the largest cluster (subpopulation): ~ 1200
[1]
  permeability efficiency on average compared to OWRWR and RWRWR: higher permeability efficiencies

## FAM-YGRKKRRQRRR [TAT]
[1]
  permeability efficiency on average compared to OWRWR and RWRWR: higher permeability efficiencies
[2]
  cytotoxicity: high cytotoxicity

## Ac-OWVRVpGO(FAM)WIRQ-NH2 [OWRWR]
[3]
  stability under intracellular conditions compared to TAT and ARG: enhanced stability
